Here are results for 27 molecules from patent US9981942B2, “Piperidine derivatives having multimodal activity against pain” (LABORATORIOS DEL DR. ESTEVE S.A., priority 2013, dated 2018).

One experiment deals with σ1 receptor and the μ-opiod receptor. The experiment can be described thus: μ and σ1 dual binding: combined class from the Ki of both radioligand assays. Set-up: species or system human; key to μ and σ1 dual binding: +: Both Ki-μ and Ki-σ1>=500 nM; ++: One Ki<500 nM while the other Ki is >=500 nM; +++: Both Ki-μ and Ki-σ1<500 nM; ++++: Both Ki-μ and Ki-σ1<100 nM. Conditions: combined class for Ki-μ and Ki-σ1; transfected HEK-293 membranes (σ1), transfected CHO-K1 cell membranes (μ). The procedure, abridged:
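Classes combine both Ki values, split at 500 nM and 100 nM. Human μ-opioid binding used 1 nM [3H]-DAMGO on CHO-K1 membranes (27 °C, 60 min, pH 7.4, naloxone 10 μM for NSB); human σ1 used 5 nM [3H](+)-pentazocine on HEK-293 membranes (37 °C, 120 min, pH 8, haloperidol 10 μM for NSB).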
As to `Oc1ncccc1C1CCN(Cc2cn(-c3ccccc3)nn2)CC1` [Example 205, 3-(1-((1-phenyl-1H-1,2,3-triazol-4-yl)methyl)piperidin-4-yl)pyridin-2-ol], the “μ and σ1 dual binding” value was “++”. With `CC(C)S(=O)(=O)Nc1cccc(C2CCN(Cc3cn(Cc4ncccc4F)nn3)CC2)n1` [Example 209, N-(6-(1-((1-((3-fluoropyridin-2-yl)methyl)-1H-1,2,3-triazol-4-yl)methyl)piperidin-4-yl)pyridin-2-yl)propane-2-sulfonamide], the “μ and σ1 dual binding” value is on record as “++”. On the same count and under the same terms, the same measure for `CC(C)S(=O)(=O)Nc1cccc(C2CCN(Cc3cn(Cc4ccc(F)cn4)nn3)CC2)n1` [Example 210, N-(6-(1-((1-((5-fluoropyridin-2-yl)methyl)-1H-1,2,3-triazol-4-yl)methyl)piperidin-4-yl)pyridin-2-yl)propane-2-sulfonamide]: “++”.

As to `CCC(=O)Nc1cccc(C2CCN(Cc3cn(-c4ccccc4F)nn3)CC2)n1` [Example 211, N-(6-(1-((1-(2-fluorophenyl)-1H-1,2,3-triazol-4-yl)methyl)piperidin-4-yl)pyridin-2-yl)propionamide], the “μ and σ1 dual binding” value was “++”. On the same count and under the same terms, with `CC(C)S(=O)(=O)Nc1cccc(C2CCN(Cc3cn(Cc4ncccc4Cl)nn3)CC2)n1` [Example 212, N-(6-(1-((1-((3-chloropyridin-2-yl)methyl)-1H-1,2,3-triazol-4-yl)methyl)piperidin-4-yl)pyridin-2-yl)propane-2-sulfonamide] the entry was “++”; with `CC(C)S(=O)(=O)Nc1cccc(C2CCN(Cc3cn(Cc4ccc(Cl)cn4)nn3)CC2)n1` [Example 213, N-(6-(1-((1-((5-chloropyridin-2-yl)methyl)-1H-1,2,3-triazol-4-yl)methyl)piperidin-4-yl)pyridin-2-yl)propane-2-sulfonamide], “++”; with `Oc1cccc(C2CCN(Cc3cn(-c4ncccc4O)nn3)CC2)c1` [Example 216, 2-(4-((4-(3-hydroxyphenyl)piperidin-1-yl)methyl)-1H-1,2,3-triazol-1-yl)pyridin-3-ol], “++”. Consider `COc1cccnc1-n1cc(CN2CCC(c3cccc(O)c3)CC2)nn1` [Example 219, 3-(1-((1-(3-methoxypyridin-2-yl)-1H-1,2,3-triazol-4-yl)methyl)piperidin-4-yl)phenol], for which the “μ and σ1 dual binding” value was “++”. For `Oc1ccc(-n2cc(CN3CCC(c4cccc(O)c4)CC3)nn2)nc1` [Example 220, 6-(4-((4-(3-hydroxyphenyl)piperidin-1-yl)methyl)-1H-1,2,3-triazol-1-yl)pyridin-3-ol], the “μ and σ1 dual binding” value is “++”. Turning to `c1ccc(Cn2cc(CN3CCC(c4cccc(Nc5nccs5)n4)CC3)nn2)nc1` [Example 230, N-(6-(1-((1-(pyridin-2-ylmethyl)-1H-1,2,3-triazol-4-yl)methyl)piperidin-4-yl)pyridin-2-yl)thiazol-2-amine], the “μ and σ1 dual binding” value is listed as “++”.

As for `c1ccc(Cn2cc(CN3CCC(c4cccc(Nc5ccccn5)c4)CC3)nn2)nc1` [Example 231, N-(3-(1-((1-(pyridin-2-ylmethyl)-1H-1,2,3-triazol-4-yl)methyl)piperidin-4-yl)phenyl)pyridin-2-amine], the “μ and σ1 dual binding” value is “++”.

Still in this experiment, the particulars now being: transfected HEK-293 membranes (σ1), transfected CHO-K1 cell membranes (μ).
Consider `CC(C)S(=O)(=O)Nc1cccc(C2CCN(Cc3cn(Cc4ccccn4)nn3)CC2)n1` [Example 206, N-(6-(1-((1-(pyridin-2-ylmethyl)-1H-1,2,3-triazol-4-yl)methyl)piperidin-4-yl)pyridin-2-yl)propane-2-sulfonamide], for which the Ki range for both μ and σ1 (dual-binding class) is less than 500 nM. On the same count and under the same terms, the same measure for `CC(C)S(=O)(=O)Nc1cccc(C2CCN(Cc3cn(-c4ccccc4)nn3)CC2)n1` [Example 207, N-(6-(1-((1-phenyl-1H-1,2,3-triazol-4-yl)methyl)piperidin-4-yl)pyridin-2-yl)propane-2-sulfonamide]: less than 500 nM.

Consider `CC(C)S(=O)(=O)Nc1cccc(C2CCN(Cc3cn(-c4ccccc4F)nn3)CC2)n1` [Example 208, N-(6-(1-((1-(2-fluorophenyl)-1H-1,2,3-triazol-4-yl)methyl)piperidin-4-yl)pyridin-2-yl)propane-2-sulfonamide], for which the Ki range for both μ and σ1 (dual-binding class) is less than 500 nM. Same read-out and setting: the same measure for `Oc1cccc(C2CCN(Cc3cn(Cc4ccc(F)cn4)cn3)CC2)c1` [Example 215, 3-(1-((1-((5-fluoropyridin-2-yl)methyl)-1H-imidazol-4-yl)methyl)piperidin-4-yl)phenol]: less than 500 nM. On the same count and under the same terms, the same measure for `COc1ccc(-n2cc(CN3CCC(c4cccc(O)c4)CC3)nn2)nc1` [Example 217, 3-(1-((1-(5-methoxypyridin-2-yl)-1H-1,2,3-triazol-4-yl)methyl)piperidin-4-yl)phenol]: less than 500 nM; for `Oc1cccc(C2CCN(Cc3cn(-c4ncccc4C(F)(F)F)nn3)CC2)c1` [Example 218, 3-(1-((1-(3-(trifluoromethyl)pyridin-2-yl)-1H-1,2,3-triazol-4-yl)methyl)piperidin-4-yl)phenol]: less than 500 nM.

For `Oc1ccc(C2CCN(Cc3cn(-c4ccccc4)nn3)CC2)cc1` [Example 221, 4-(1-((1-phenyl-1H-1,2,3-triazol-4-yl)methyl)piperidin-4-yl)phenol], the Ki range for both μ and σ1 (dual-binding class) is less than 500 nM. On to `Oc1ccccc1C1CCN(Cc2cn(-c3ccccc3)nn2)CC1` [Example 222, 2-(1-((1-phenyl-1H-1,2,3-triazol-4-yl)methyl)piperidin-4-yl)phenol], for which the Ki range for both μ and σ1 (dual-binding class) is less than 500 nM. Still for that read-out and setting: the same measure for `Oc1cccc(C2CCN(Cc3cn(-c4cc(F)ccc4F)nn3)CC2)c1` [Example 223, 3-(1-((1-(2,5-difluorophenyl)-1H-1,2,3-triazol-4-yl)methyl)piperidin-4-yl)phenol]: less than 100 nM; for `Cc1ccc(F)c(-n2cc(CN3CCC(c4cccc(O)c4)CC3)nn2)c1` [Example 224, 3-(1-((1-(2-fluoro-5-methylphenyl)-1H-1,2,3-triazol-4-yl)methyl)piperidin-4-yl)phenol]: less than 100 nM. Still for that read-out and setting: the same measure for `c1ccc(-n2cc(CN3CCC(c4cccc(Nc5nccs5)c4)CC3)nn2)cc1` [Example 225, N-(3-(1-((1-phenyl-1H-1,2,3-triazo1-4-yl)methyl)piperidin-4-yl)phenyl)thiazol-2-amine]: less than 100 nM; for `Oc1cccc(C2CCN(Cc3cn(-c4ccc(C(F)(F)F)cc4F)nn3)CC2)c1` [Example 226, 3-(1-((1-(2-fluoro-4-(trifluoromethyl)phenyl)-1H-1,2,3-triazol-4-yl)methyl)piperidin-4-yl)phenol]: less than 100 nM.

As for `O=S(=O)(Nc1cccc(C2CCN(Cc3cn(-c4ccccc4F)nn3)CC2)n1)C1CC1` [Example 228, N-(6-(1-((1-(2-fluorophenyl)-1H-1,2,3-triazol-4-yl)methyl)piperidin-4-yl)pyridin-2-yl)cyclopropanesulfonamid], the Ki range for both μ and σ1 (dual-binding class) is less than 500 nM. Same read-out and setting: with `c1ccc(Cn2cc(CN3CCC(c4cccc(Nc5nccs5)c4)CC3)nn2)nc1` [Example 229, N-(3-(1-((1-(pyridin-2-ylmethyl)-1H-1,2,3-triazol-4-yl)methyl)piperidin-4-yl)phenyl)thiazol-2-amine] the figure was less than 500 nM; with `Fc1ccc(Nc2cccc(C3CCN(Cc4cn(Cc5ccccn5)nn4)CC3)c2)nc1` [Example 232, 5-fluoro-N-(3-(1-((1-(pyridin-2-ylmethyl)-1H-1,2,3-triazol-4-yl)methyl)piperidin-4-yl)phenyl)pyridin-2-amine], less than 500 nM. The same measure, in the same setting: with `Cc1ccc2cc(-n3cc(CN4CCC(c5cccc(O)c5)CC4)nn3)ccc2n1` [Example 233, 3-(1-((1-(2-methylquinolin-6-yl)-1H-1,2,3-triazol-4-yl)methyl)piperidin-4-yl)phenol] the figure was less than 500 nM.
